Data set [1] has as its target T1, Estrogen receptor (Homo sapiens) (UniProt P03372).
T1 sequence (whole entry): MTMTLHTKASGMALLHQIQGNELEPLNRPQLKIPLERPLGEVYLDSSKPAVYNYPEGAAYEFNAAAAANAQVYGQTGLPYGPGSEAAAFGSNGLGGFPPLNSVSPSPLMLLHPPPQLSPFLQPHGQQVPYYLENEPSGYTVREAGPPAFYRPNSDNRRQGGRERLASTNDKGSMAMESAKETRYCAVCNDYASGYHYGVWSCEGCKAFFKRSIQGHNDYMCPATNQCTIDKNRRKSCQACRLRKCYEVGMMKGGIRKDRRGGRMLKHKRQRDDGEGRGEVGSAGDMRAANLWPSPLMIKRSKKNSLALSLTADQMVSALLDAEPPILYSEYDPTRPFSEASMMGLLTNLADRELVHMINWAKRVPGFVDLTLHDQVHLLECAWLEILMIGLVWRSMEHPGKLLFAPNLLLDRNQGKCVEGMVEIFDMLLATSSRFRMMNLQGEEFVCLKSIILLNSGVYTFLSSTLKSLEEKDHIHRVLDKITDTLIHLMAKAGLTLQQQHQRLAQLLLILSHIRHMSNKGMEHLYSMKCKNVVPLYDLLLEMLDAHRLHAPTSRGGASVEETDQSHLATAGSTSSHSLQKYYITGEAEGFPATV
The data set is described as follows: Agonist activity at estradiol receptor (unknown origin) at 10 uM relative to control.

Data set [2] in a line: Chaperone activity at GCase L444P GBA gene mutant in human fibroblasts derived from Gaucher patient assessed as increase in GPN-induced reduction of calcium release using Fluo-8AM based fluorescence assay.
The species entered for another data set is Homo sapiens. The experiment in a line: Chaperone activity at GCase L444P GBA gene mutant in human fibroblasts derived from Gaucher patient assessed as increase in GPN-induced reduction of calcium release using Fluo-8AM based fluorescence assay relative to control.
Data set [3] deals with T2, Lysosomal acid glucosylceramidase (Homo sapiens) (UniProt P04062).
T2 sequence (whole entry): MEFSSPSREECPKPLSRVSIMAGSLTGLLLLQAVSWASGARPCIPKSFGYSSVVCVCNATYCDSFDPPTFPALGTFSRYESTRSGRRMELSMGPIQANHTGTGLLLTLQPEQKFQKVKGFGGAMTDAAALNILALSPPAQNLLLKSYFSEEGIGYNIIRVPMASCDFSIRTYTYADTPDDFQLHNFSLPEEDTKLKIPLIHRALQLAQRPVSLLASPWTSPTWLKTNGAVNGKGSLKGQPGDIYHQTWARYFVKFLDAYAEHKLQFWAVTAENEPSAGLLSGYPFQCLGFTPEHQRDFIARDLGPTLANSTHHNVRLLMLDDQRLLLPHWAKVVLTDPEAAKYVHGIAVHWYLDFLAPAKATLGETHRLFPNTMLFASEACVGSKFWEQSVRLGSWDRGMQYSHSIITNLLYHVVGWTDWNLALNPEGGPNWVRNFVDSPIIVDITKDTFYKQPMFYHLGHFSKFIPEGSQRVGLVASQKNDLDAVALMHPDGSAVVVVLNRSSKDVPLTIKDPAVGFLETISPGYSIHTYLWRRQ
The experiment in a line: Chaperone activity at GCase in wild-type human fibroblasts assessed as increase in GPN-induced reduction of calcium release using Fluo-8AM based fluorescence assay relative to control.

For data set [4] the following is noted: human, microsomes.
Data set [5] is described as follows: Aqueous solubility of compound in PBS. Type of data set: physicochemical. To be noted: buffer.
The conditions of data set [6]: mouse, microsomes.
Description: Metabolic stability in mouse liver microsomes assessed as half life

In general, EC50 refers to the concentration needed to bring the measured effect to its halfway point. Broadly, the Emax is the size of the effect at its maximum, as opposed to the concentration needed. In general, solubility refers to how much of the substance goes into solution per volume. A low value points to a poorly soluble substance.

Values after ≈ are worked out from the molar mass of the structure shown. Bounds are passed on as bounds.

`CC/C(=C/c1ccc(OCCN(C)C)cc1)c1ccc(C#N)cc1` displayed an Activity in data set [1] of 32%. Also, the EC50 in data set [2] was found to be 4.3 µM. Besides, the Emax in the data set listed under Homo sapiens amounted to 47%.
The like results for `CC/C(=C/c1ccc(OCCN(C)C)cc1)c1ccccc1` were, in that order, 35%, 15.5 µM and 80%.
Take `CC/C(=C(\c1ccc(I)cc1)c1ccc(OCCN2CCCC2)cc1)c1ccccc1` [IDOXIFENE]: the EC50 in data set [2] came to 10.7 µM. In addition, the Emax in the data set filed under Homo sapiens stood at 48%.
The compound `CC/C(=C\c1ccc(OCCN(C)C)cc1)c1ccccc1` yielded an Activity in data set [1] of 19%. For the same compound, the EC50 in data set [2] was 5.8 µM. In addition, the Emax in the data set listed under Homo sapiens was found to be 73%.
`CC(C)CCC(C(=O)c1ccc(OCCN(C)C)cc1)c1ccccc1` (configuration not stated): in data set [1], the Activity came out at 35%. For the same compound, the EC50 in data set [2] stood at 3.6 µM. For the same compound, in the data set listed under Homo sapiens, the maximal effect (Emax) is 191%.
With `CC/C(=C/c1ccc(OCCN(C)C)cc1)c1ccc(C(N)=O)cc1`, in data set [1], the Activity is 46%. Further, the EC50 in data set [2] was greater than 20 µM. In the data set filed under Homo sapiens, the Emax was 0%.
The like results for `CCC(Cc1ccccc1)c1ccc(OCCN(C)C)cc1` (configuration not stated) were, in that order, 75%, greater than 20 µM and 0%.
`CC/C(=C(\c1ccccc1)c1ccc(OCCN(C)C)cc1)c1ccccc1`: the Emax in data set [3] came out at 28%; in the data set listed under Homo sapiens it was 148%.
Turning to `CCC(Cc1ccc(OCCN(C)C)cc1)c1ccccc1` (configuration not stated), the Activity in data set [1] came to 43%. The EC50 in data set [2] was determined as 4.3 µM. Moreover, the Emax in the data set listed under Homo sapiens was 154%.
The like results for `CCCCCCC(C(=O)c1ccc(OCCN(C)C)cc1)c1ccccc1` (configuration not stated) were, in that order, 5%, greater than 20 µM and 0%.
The matching figures for `CCCC(CCC)(C(=O)c1ccc(OCCN(C)C)cc1)c1ccccc1`: 25%, 4 µM and 60%.
The like results for `CC/C(=C/c1ccc(OCCN(C)C)cc1)c1ccc(N)cc1` were, in that order, 25%, greater than 20 µM and 0%.
For the compound `CC/C(=C/c1ccc(OCCN(C)C)cc1)c1ccc(F)cc1`, the Activity in data set [1] was 46%. The EC50 in data set [2] is greater than 20 µM. In the data set filed under Homo sapiens, the Emax turned out to be 0%.
The matching figures for `CC/C(=C/c1ccc(OCCN(C)C)cc1)c1ccc(Cl)cc1`: 70%, 5.4 µM and 70%.
For the compound `C/C=C/c1ccccc1C(CCCC)C(=O)c1ccc(OCCN(C)C)cc1` (configuration not stated), the Activity in data set [1] came to 35%. The results for the t1/2 in data set [4] and in data set [6] were 24.4 min and 9.1 min, respectively. In addition, in data set [2], the EC50 worked out at 2.2 µM. In addition, the values for the Emax (in data set [3]; in the data set listed under Homo sapiens) were 109% and 257%, respectively. The solubility in data set [5] was determined as 45.2 µM (≈ 17.2 µg/mL).
Take `CC(C)CC(C(=O)c1ccc(OCCN(C)C)cc1)c1ccccc1C1CC1` (racemic): the Activity in data set [1] was found to be 0%. Besides, the figures for the t1/2 in data set [4] and in data set [6] were 26.7 min and 7.7 min, respectively. The EC50 in data set [2] was 3.1 µM. Further, the Emax was found to be 50% in data set [3] and 240% in the data set filed under Homo sapiens. Also, in data set [5], the solubility was 31.7 µM (≈ 12 µg/mL).
As to `CC/C(=C\c1ccc(OCCN(C)C)cc1)Cc1ccccc1`, the Activity in data set [1] is 69%. Besides, the EC50 in data set [2] was found to be 3.1 µM. Further, in the data set filed under Homo sapiens, the Emax is 67%.
The matching figures for `CC/C(=C/c1ccc(OCCN(C)C)cc1)Cc1ccccc1`: 47%, 2.3 µM and 40%.
On to `CC/C(=C/c1ccc(OCCN(C)C)cc1)c1ccc([N+](=O)[O-])cc1`, for which the EC50 in data set [2] is greater than 20 µM. For the same compound, in the data set filed under Homo sapiens, the Emax was 0%.
As to `C=Cc1ccccc1C(CCCC)C(=O)c1ccc(OCCN(C)C)cc1` (configuration not stated), in data set [1], the Activity was found to be 100%. Also, the EC50 in data set [2] amounted to 2.3 µM. The Emax in the data set listed under Homo sapiens amounted to 177%.
Turning to `CC(C)CC(C(=O)c1ccc(OCCN(C)C)cc1)c1cccc(C(C)C)c1` (configuration not stated), the EC50 in data set [2] was 1.5 µM. Further, the Emax in the data set filed under Homo sapiens was found to be 80%.
Take `CCCCC(C(=O)c1ccc(OCCN(C)C)cc1)c1ccccc1CC` (configuration not stated): the EC50 in data set [2] was determined as 0.65 µM. For the same compound, the Emax in the data set filed under Homo sapiens was 138%.
Take `CCCCC(C(=O)c1ccc(OCCN(C)C)cc1)c1ccccc1` (configuration not stated): the EC50 in data set [2] was greater than 20 µM. Further, in the data set filed under Homo sapiens, the Emax amounted to 0%.
With `CC(C)C(C(=O)c1ccc(OCCN(C)C)cc1)c1ccccc1` (configuration not stated), in data set [2], the EC50 turned out to be 4.4 µM. In addition, the Emax in the data set filed under Homo sapiens was found to be 54%.
The compound `CC(C)CC(C(=O)c1ccc(OCCN(C)C)cc1)c1ccccc1` (configuration not stated) registered an Activity in data set [1] of 40%. The EC50 in data set [2] was determined as 0.9 µM. The Emax in the data set listed under Homo sapiens came out at 108%.
The like results for `CCCC/C(=C\c1ccc(OCCN(C)C)cc1)c1ccccc1` were, in that order, 98%, 7.2 µM and 56%.
As for `CCCCC(C(=O)c1ccc(OCCN(C)C)cc1)c1ccccc1C(C)C` (configuration not stated), in data set [1], the Activity is 45%. The figures for the t1/2 in data set [4] and in data set [6] were 21.6 min and 7.9 min, respectively. The EC50 in data set [2] was determined as 1.4 µM. In addition, the Emax in data set [3] was 56%; in the data set listed under Homo sapiens, 401%. Also, the solubility in data set [5] worked out at 49.4 µM (≈ 18.8 µg/mL).
In data set [1], `CC/C(=C\c1ccccc1)c1ccc(OCCN(C)C)cc1` yielded an Activity of 43%. In data set [2], the EC50 was 3 µM. In the data set listed under Homo sapiens, the Emax was determined as 53%.
The compound `CC(C)CC(C(=O)c1ccc(OCCN(C)C)cc1)c1ccccc1C(C)C` (configuration not stated) displayed an Activity in data set [1] of 39%. Moreover, the Emax in data set [3] was determined as 148%; in the data set listed under Homo sapiens, 406%.
